This data set has as its system HaCaT cells. The data set can be described thus: Relief of 5-FU proliferative toxicity to HaCaT cells (CCK-8 cell survival). The data set is classed as cell-based. The following applies: for Cell Survival Rate (increased percentage of cell survival compared with the Group of 5-FU): 5-Fu 20 μM, HaCaT cells; for activation at 1 µM: compound 1 μM; for activation at 10 µM: compound 10 μM; for activation at 100 µM: compound 100 μM; for activation at 500 µM: compound 500 μM. As for the experimental part: The cultured skin cell HaCaTs were digested, counted, and inoculated into a 96-well plate with 5000-10000 cells in each well. After 24 h of culture, the wells were divided into Group of blank solvent control, Group of 5-FU, Group of 5-FU+thymidine derivative, Group of 5-FU+the combination of thymidine derivative and uridine derivative. […] adding a solution of 5-FU and a solution of thymidine derivative (the final concentrations of 5-FU and thymidine derivative are shown in Table 3, the solution of thymidine is an aqueous solution, while the solutions of thymidine derivatives are all DMSO solutions); Group of 5-FU+the combination of thymidine derivative and uridine derivative: adding a solution of 5-FU and a mixed solution of thymidine derivative and uridine derivative (the final concentrations of the solution of 5-FU and the mixed solution of thymidine derivative+uridine derivative are shown in Table 3, the solution of thymidine is an aqueous solution, while the mixed solutions of thymidine derivative+uridine derivative are all DMSO solutions); Group of blank solvent control: adding the same type of solution as those of the corresponding Group of 5-FU or Group of 5-FU+thymidine derivative (or the mixed solution of thymidine derivative+uridine derivative) in equal volume. Group of blank solvent control was used as control to exclude the influence of the solvents in Group of 5-FU and Group of 5-FU+thymidine derivative (or the mixed solution of thymidine derivative+uridine derivative) on the results. After additional 48 hours of culture, a Cell Counting Kit-8 (CCK-8) detection kit (C0037, purchased from Shanghai Beyotime Biotechnology) is used to determine the cell survival rate, thereby calculating the proliferative toxicity of 5-Fu/5-DFUR on cells and the relieving effect of the thymidine derivative (or the mixed solution of thymidine derivative+uridine derivative) on the proliferative toxicity. Using GraphPad Prism 6.0 software, the results were statistically analyzed by t-test and plotted.
Table 3 lists the combinations of 5-FU and thymidine derivative (or the mixed solution of thymidine derivative+uridine derivative), and the corresponding experimental results (wherein the data in the column of cell survival indicate the corresponding increased percentage of the cell survivals of Group of 5-FU+thymidine derivative or Group of 5-FU+the combination of thymidine derivative and uridine derivative compared with the Group of 5-FU). FIGS. 3-10 list the experimental results of several representative compounds.
The effect of thymidine derivative or a combination of thymidine derivative and uridine derivative on relieving the proliferative toxicity of a chemotherapeutical drug (5-FU) to HaCaT cells was tested according to the method in Examples 2-29. The test thymidine derivative or the combination of thymidine derivative and uridine derivative, as well as the final concentration of the test compounds were shown in Table 7.
Table 7 lists the combinations of 5-FU and thymidine derivative (or the mixed solution of thymidine derivative+uridine derivative), and the corresponding experimental results (wherein the data in the column of cell survival indicate the corresponding increased percentage of the cell survivals of Group of 5-FU+thymidine derivative or Group of 5-FU+the combination of thymidine derivative and uridine derivative compared with the Group of 5-FU). FIGS. 15-21 list the experimental results of several exemplary compounds.

Where [1] appears, read: selected compound final concentration 0.8 μM.
Where [2] appears, read: selected compound final concentration 1.6 μM.
[3] abbreviates: selected compound final concentration 3.13 μM.
Where [4] appears, read: selected compound final concentration 6.25 μM.
[5] abbreviates: selected compound final concentration 12.5 μM.
[6] abbreviates: selected compound final concentration 25 μM.
The mark [7] stands for this setting: selected compound final concentration 50 μM.
Where [8] appears, read: selected compound final concentration 100 μM.
The mark [9] stands for this setting: Homo sapiens, HaCaT, increase vs Group of 5-FU, 5-FU 20 μM, 48 h, read-out: Cell Survival Rate.

The source of these data is patent US20230405003A1, “APPLICATION OF THYMIDINE DERIVATIVE IN PREPARATION OF DRUGS” (ONQUALITY PHARMACEUTICALS CHINA LTD., priority 2020, published 2023).

Structures are written as SMILES.

For `COc1ccc2cc([C@H](C)C(=O)O[C@H]3C[C@H](n4cc(C)c(=O)[nH]c4=O)O[C@@H]3CO)ccc2c1` [T42], the “Cell Survival Rate (increased percentage of cell survival compared with the Group of 5-FU)” value is, setting by setting: under setting [1], 38%-45%; under setting [2], 59%-67%; under setting [3], 85%-93%; under setting [4], 85%-92%; under setting [5], 58%-66%; under setting [6], 68%-75%. Also, the “Cell Survival Rate (increased percentage of cell survival compared with the Group of 5-FU)” value under setting [7] is reported as 66%-74%.
For `Cc1cn([C@H]2C[C@H](O)[C@@H](COC(=O)Cc3ccccc3Nc3c(Cl)cccc3Cl)O2)c(=O)[nH]c1=O` [T39], the “Cell Survival Rate (increased percentage of cell survival compared with the Group of 5-FU)” value is, setting by setting: under setting [1], 36%-43%; under setting [2], 58%-66%; under setting [3], 64%-71%; under setting [4], 67%-74%; under setting [5], 65%-72%; under setting [6], 69%-77%. Besides, the “Cell Survival Rate (increased percentage of cell survival compared with the Group of 5-FU)” value under setting [7] is on record as 69%-77% and the “Cell Survival Rate (increased percentage of cell survival compared with the Group of 5-FU)” value under setting [8] was 75%-83%.
In the case of `Cc1cn([C@H]2C[C@H](OC(=O)OCC(C)C)[C@@H](COC(=O)OCC(C)C)O2)c(=O)[nH]c1=O` [T20], under setting [9], the activation at 1 µM lay in the range of 48 to 58%, the activation at 10 µM lay in the range of 58 to 66% and the activation at 100 µM is 55 to 65%.
Take `Cc1cn([C@H]2C[C@H](OC(=O)C(C)C)[C@@H](COC(=O)C(C)C)O2)c(=O)[nH]c1=O` [T13]: under setting [9], the activation at 1 µM is 15 to 25%, the activation at 10 µM lay within 40 to 50% and the activation at 100 µM lay within 25 to 35%.
For `Cc1cn([C@H]2C[C@H](OC(=O)[C@@H](C)c3ccc(CC(C)C)cc3)[C@@H](CO)O2)c(=O)[nH]c1=O` [T44], the “Cell Survival Rate (increased percentage of cell survival compared with the Group of 5-FU)” value by setting is: under setting [4], 13%-20%; under setting [5], 27%-35%; under setting [6], 53%-60%; under setting [7], 69%-76%.
With `Cc1cn([C@H]2C[C@H](OC(=O)C(C)c3cccc(Oc4ccccc4)c3)[C@@H](COC(=O)C(C)c3cccc(Oc4ccccc4)c3)O2)c(=O)[nH]c1=O` (stereo partly shown) [T46], the “Cell Survival Rate (increased percentage of cell survival compared with the Group of 5-FU)” value under setting [3] was 27%-34%; the “Cell Survival Rate (increased percentage of cell survival compared with the Group of 5-FU)” value under setting [4] was 34%-41%; the “Cell Survival Rate (increased percentage of cell survival compared with the Group of 5-FU)” value under setting [5] was 48%-55%; the “Cell Survival Rate (increased percentage of cell survival compared with the Group of 5-FU)” value under setting [6] is 61%-68%; the “Cell Survival Rate (increased percentage of cell survival compared with the Group of 5-FU)” value under setting [7] was 65%-72%; the “Cell Survival Rate (increased percentage of cell survival compared with the Group of 5-FU)” value under setting [8] is 75%-83%. The “Cell Survival Rate (increased percentage of cell survival compared with the Group of 5-FU)” value (selected compound final concentration 200 μM) was 54%-62%.
With `Cc1cn([C@H]2C[C@H](OC(=O)Cc3ccccc3)[C@@H](COC(=O)Cc3ccccc3)O2)c(=O)[nH]c1=O` [T10], under setting [9], the activation at 1 µM is 5 to 10% and the activation at 10 µM lay within 60 to 70%. Moreover, the activation at 2 µM (Homo sapiens, HaCaT, increase vs Group of 5-FU, 5-FU 20 μM, compound 2 μM, 48 h, read-out: Cell Survival Rate) fell in the range of 14 to 22%. The activation at 5 µM (Homo sapiens, HaCaT, increase vs Group of 5-FU, 5-FU 20 μM, compound 5 μM, 48 h, read-out: Cell Survival Rate) was in the range of 35 to 45%. The activation at 20 µM (Homo sapiens, HaCaT, increase vs Group of 5-FU, 5-FU 20 μM, compound 20 μM, 48 h, read-out: Cell Survival Rate) fell in the range of 65 to 75%. Further, the activation at 50 µM (Homo sapiens, HaCaT, increase vs Group of 5-FU, 5-FU 20 μM, compound 50 μM, 48 h, read-out: Cell Survival Rate) lay in the range of 65 to 75%.
For the compound `Cc1cn([C@H]2C[C@H](OC(=O)NC3CC3)[C@@H](COC(=O)NC3CC3)O2)c(=O)[nH]c1=O` [T15], under setting [9], the activation at 1 µM is 13 to 20%, the activation at 10 µM fell in the range of 13 to 20%, the activation at 100 µM was 20 to 30% and the activation at 500 µM fell in the range of 25 to 35%. Moreover, where the note is “Homo sapiens, HaCaT, increase vs Group of 5-FU, 5-FU 20 μM, compound 1000 μM, 48 h, read-out: Cell Survival Rate”, the activation at 1000 µM was in the range of 9 to 16%.
As to `Cc1cn([C@H]2C[C@H](OC(=O)Nc3ccccc3)[C@@H](COC(=O)Nc3ccccc3)O2)c(=O)[nH]c1=O` [T16], under setting [9], the activation at 1 µM fell in the range of 0 to 5% and the activation at 10 µM fell in the range of 7 to 14%.
In the case of `Cc1cn([C@H]2C[C@H](OC(=O)OC(C)(C)C)[C@@H](COC(=O)OC(C)(C)C)O2)c(=O)[nH]c1=O` [T23], under setting [9], the activation at 1 µM is 2 to 7%, the activation at 10 µM is 5 to 11% and the activation at 100 µM was 20 to 26%.
As to `CC(=O)NC[C@H]1O[C@@H](n2cc(C)c(=O)[nH]c2=O)C[C@@H]1OC(C)=O` [T17], under setting [9], the activation at 1 µM lay in the range of 15 to 25%, the activation at 10 µM lay in the range of 18 to 26%, the activation at 100 µM is 25 to 35% and the activation at 500 µM fell in the range of 35 to 45%. Moreover, for the setting “Homo sapiens, HaCaT, increase vs Group of 5-FU, 5-FU 20 μM, compound 200 μM, 48 h, read-out: Cell Survival Rate”, the activation at 200 µM was in the range of 30 to 40%.
Consider `Cc1cn([C@H]2C[C@H](O)[C@@H](COC(=O)[C@H](C)c3ccc(-c4ccccc4)c(F)c3)O2)c(=O)[nH]c1=O` [T29], for which the “Cell Survival Rate (increased percentage of cell survival compared with the Group of 5-FU)” value under setting [1] was 19%-25%; the “Cell Survival Rate (increased percentage of cell survival compared with the Group of 5-FU)” value under setting [2] is recorded as 19%-27%; the “Cell Survival Rate (increased percentage of cell survival compared with the Group of 5-FU)” value under setting [3] was 35%-42%; the “Cell Survival Rate (increased percentage of cell survival compared with the Group of 5-FU)” value under setting [4] is on record as 43%-50%; the “Cell Survival Rate (increased percentage of cell survival compared with the Group of 5-FU)” value under setting [5] was 69%-76%; the “Cell Survival Rate (increased percentage of cell survival compared with the Group of 5-FU)” value under setting [6] is given as 54%-62%. In addition, the “Cell Survival Rate (increased percentage of cell survival compared with the Group of 5-FU)” value under setting [7] is reported as 48%-54%.
Regarding `COc1ccc2c(c1)c(CC(=O)OC[C@H]1O[C@@H](n3cc(C)c(=O)[nH]c3=O)C[C@@H]1O)c(C)n2C(=O)c1ccc(Cl)cc1` [T38], the “Cell Survival Rate (increased percentage of cell survival compared with the Group of 5-FU)” value is, setting by setting: under setting [1], 13%-21%; under setting [2], 29%-38%; under setting [3], 38%-47%; under setting [4], 46%-55%; under setting [5], 53%-60%; under setting [6], 58%-65%. Further, the “Cell Survival Rate (increased percentage of cell survival compared with the Group of 5-FU)” value is listed as 67%-75% under setting [7] and 55%-63% under setting [8].
For the compound `Cc1cn([C@H]2C[C@H](O)[C@@H](COC(=O)[C@@H](C)c3ccc(CC(C)C)cc3)O2)c(=O)[nH]c1=O` [T31], the “Cell Survival Rate (increased percentage of cell survival compared with the Group of 5-FU)” value by setting is: under setting [1], 23%-30%; under setting [2], 29%-38%; under setting [3], 37%-43%; under setting [4], 41%-47%; under setting [5], 44%-51%.
